{
  "source": "patent US8933230B2",
  "about": "“Phosphorus-containing group-substituted quinoline, its preparation process, medical composition containing the compounds and application” (priority 2011, dated 2015)",
  "test_in_all_cases": "KinomeScan kinase panel",
  "type_in_all_cases": "binding",
  "key": {"CSNK1G2": {"target": "T1, CSNK1G2 (Homo sapiens, UniProt P78368)", "T1 construct": "purchased DiscoveRx Corporation (KinomeScan)", "how_it_was_run": "(§1)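 Compound is added at 1000 nM to each assay of the KinomeScan 442-kinase panel. Inhibitory effect is then recorded per kinase.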"}, "PAKC-beta": {"target": "T2, PAKC-beta (Homo sapiens, UniProt P22694)", "T2 construct": "purchased DiscoveRx Corporation (KinomeScan)", "how_it_was_run": "as §1"}, "PIK3CB": {"target": "T3, PIK3CB (Homo sapiens, UniProt P42338)", "T3 construct": "purchased DiscoveRx Corporation (KinomeScan)", "how_it_was_run": "as §1"}, "MLK3": {"target": "T4, MLK3 (Homo sapiens, UniProt Q16584)", "T4 construct": "purchased DiscoveRx Corporation (KinomeScan)", "how_it_was_run": "as §1"}, "HIPK2": {"target": "T5, HIPK2 (Homo sapiens, UniProt Q9H2X6)", "T5 construct": "purchased DiscoveRx Corporation (KinomeScan)", "how_it_was_run": "as §1"}, "CAMK1G": {"target": "T6, CAMK1G (Homo sapiens, UniProt Q96NX5)", "T6 construct": "purchased DiscoveRx Corporation (KinomeScan)", "how_it_was_run": "as §1"}, "PIK3CA(18DDL)": {"target": "T7, PIK3CA(18DDL) (Homo sapiens, UniProt P42336, I800L)", "T7 construct": "purchased DiscoveRx Corporation (KinomeScan)", "how_it_was_run": "as §1"}, "YES": {"target": "T8, YES (Homo sapiens, UniProt P07947)", "T8 construct": "purchased DiscoveRx Corporation (KinomeScan service)", "how_it_was_run": "as §1"}, "S6K1": {"target": "T9, S6K1 (Homo sapiens, UniProt P23443)", "T9 construct": "purchased DiscoveRx Corporation (KinomeScan)", "how_it_was_run": "as §1"}, "AKT2": {"target": "T10, AKT2 (Homo sapiens, UniProt P31751)", "T10 construct": "purchased DiscoveRx Corporation (KinomeScan)", "how_it_was_run": "as §1"}, "TLK2": {"target": "T11, TLK2 (Homo sapiens, UniProt Q86UE8)", "T11 construct": "purchased DiscoveRx Corporation (KinomeScan)", "how_it_was_run": "as §1"}, "STK35": {"target": "T12, STK35 (Homo sapiens, UniProt Q8TDR2)", "T12 construct": "purchased DiscoveRx Corporation (KinomeScan)", "how_it_was_run": "as §1"}, "PFTAIRE2": {"target": "T13, PFTAIRE2 (Homo sapiens, UniProt Q96Q40)", "T13 construct": "purchased DiscoveRx Corporation (KinomeScan)", "how_it_was_run": "as §1"}, "MKNK1": {"target": "T14, MKNK1 (Homo sapiens, UniProt Q9BUB5)", "T14 construct": "purchased DiscoveRx Corporation (KinomeScan)", "how_it_was_run": "as §1"}, "EPHA4": {"target": "T15, EPHA4 (Homo sapiens, UniProt P54764)", "T15 construct": "purchased DiscoveRx Corporation (KinomeScan)", "how_it_was_run": "as §1"}, "KIT(L576P)": {"target": "T16, KIT(L576P) (Homo sapiens, UniProt P10721, L576P)", "T16 construct": "purchased DiscoveRx Corporation (KinomeScan)", "how_it_was_run": "as §1"}, "MAP4K2": {"target": "T17, MAP4K2 (Homo sapiens, UniProt Q12851)", "T17 construct": "purchased DiscoveRx Corporation (KinomeScan)", "how_it_was_run": "as §1"}, "PIP5K2B": {"target": "T18, PIP5K2B (Homo sapiens, UniProt P78356)", "T18 construct": "purchased DiscoveRx Corporation (KinomeScan)", "how_it_was_run": "as §1"}, "PDGFRB": {"target": "T19, PDGFRB (Homo sapiens, UniProt P09619)", "T19 construct": "purchased DiscoveRx Corporation (KinomeScan panel)", "how_it_was_run": "as §1"}, "EGFR(E746-A750del)": {"target": "T20, EGFR(E746-A750del) (Homo sapiens, UniProt P00533, DEL746-750)", "T20 construct": "purchased DiscoveRx Corporation (KinomeScan)", "how_it_was_run": "as §1"}, "CSNK2A1": {"target": "T21, CSNK2A1 (Homo sapiens, UniProt P68400)", "T21 construct": "purchased DiscoveRx Corporation (KinomeScan)", "how_it_was_run": "as §1"}, "PLK2": {"target": "T22, PLK2 (Homo sapiens, UniProt Q9NYY3)", "T22 construct": "purchased DiscoveRx Corporation (KinomeScan)", "how_it_was_run": "as §1"}, "TESK1": {"target": "T23, TESK1 (Homo sapiens, UniProt Q15569)", "T23 construct": "purchased DiscoveRx Corporation (KinomeScan)", "how_it_was_run": "as §1"}, "MEK2": {"target": "T24, MEK2 (Homo sapiens, UniProt P36507)", "T24 construct": "purchased DiscoveRx Corporation (KinomeScan)", "T24 sequence (P36507 whole entry)": "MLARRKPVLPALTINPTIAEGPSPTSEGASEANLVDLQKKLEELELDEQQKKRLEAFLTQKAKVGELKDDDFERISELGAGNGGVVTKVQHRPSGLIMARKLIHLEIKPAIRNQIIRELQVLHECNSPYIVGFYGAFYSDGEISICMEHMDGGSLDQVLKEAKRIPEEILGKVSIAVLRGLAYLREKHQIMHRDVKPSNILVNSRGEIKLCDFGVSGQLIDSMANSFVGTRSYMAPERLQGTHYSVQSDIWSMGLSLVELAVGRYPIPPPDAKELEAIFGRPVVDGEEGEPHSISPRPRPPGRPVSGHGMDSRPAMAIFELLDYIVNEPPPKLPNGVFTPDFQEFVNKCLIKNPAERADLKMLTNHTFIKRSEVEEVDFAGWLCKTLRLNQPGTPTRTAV", "how_it_was_run": "as §1"}, "ERBB3": {"target": "T25, ERBB3 (Homo sapiens, UniProt P21860)", "T25 construct": "purchased DiscoveRx Corporation (KinomeScan)", "T25 sequence (P21860 20-1342)": "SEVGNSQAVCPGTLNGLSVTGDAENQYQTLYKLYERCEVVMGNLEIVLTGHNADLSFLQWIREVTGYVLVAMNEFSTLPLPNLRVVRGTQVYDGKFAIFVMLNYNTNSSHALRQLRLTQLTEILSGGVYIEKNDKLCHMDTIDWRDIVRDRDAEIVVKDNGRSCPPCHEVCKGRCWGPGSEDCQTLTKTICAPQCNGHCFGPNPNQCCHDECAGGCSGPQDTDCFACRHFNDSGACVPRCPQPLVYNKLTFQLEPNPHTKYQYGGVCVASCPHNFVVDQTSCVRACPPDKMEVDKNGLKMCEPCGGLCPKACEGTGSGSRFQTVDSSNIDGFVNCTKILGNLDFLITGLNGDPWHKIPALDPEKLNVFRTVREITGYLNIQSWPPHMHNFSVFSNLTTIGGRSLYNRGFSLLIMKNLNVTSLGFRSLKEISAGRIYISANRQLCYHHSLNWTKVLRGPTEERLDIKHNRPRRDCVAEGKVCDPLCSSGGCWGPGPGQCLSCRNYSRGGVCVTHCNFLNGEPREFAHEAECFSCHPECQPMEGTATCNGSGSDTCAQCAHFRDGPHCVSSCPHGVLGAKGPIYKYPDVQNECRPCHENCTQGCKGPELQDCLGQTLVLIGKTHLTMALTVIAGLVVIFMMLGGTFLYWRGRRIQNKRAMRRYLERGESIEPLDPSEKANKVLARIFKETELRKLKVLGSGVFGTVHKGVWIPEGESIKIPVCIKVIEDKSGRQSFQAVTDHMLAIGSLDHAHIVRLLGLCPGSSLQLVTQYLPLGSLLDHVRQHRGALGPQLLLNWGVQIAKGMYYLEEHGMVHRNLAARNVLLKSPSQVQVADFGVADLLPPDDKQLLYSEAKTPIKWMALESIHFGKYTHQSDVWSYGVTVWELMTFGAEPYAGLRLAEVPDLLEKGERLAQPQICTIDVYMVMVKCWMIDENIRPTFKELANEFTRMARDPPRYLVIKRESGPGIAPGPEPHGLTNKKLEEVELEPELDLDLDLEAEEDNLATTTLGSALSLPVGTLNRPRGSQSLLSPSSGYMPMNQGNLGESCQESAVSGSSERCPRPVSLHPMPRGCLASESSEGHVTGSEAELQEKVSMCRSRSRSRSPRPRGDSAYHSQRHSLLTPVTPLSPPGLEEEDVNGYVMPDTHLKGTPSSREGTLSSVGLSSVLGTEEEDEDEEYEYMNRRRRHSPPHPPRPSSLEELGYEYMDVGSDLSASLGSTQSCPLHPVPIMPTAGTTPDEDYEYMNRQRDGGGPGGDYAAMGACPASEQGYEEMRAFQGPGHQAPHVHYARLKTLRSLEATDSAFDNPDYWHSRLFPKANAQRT", "how_it_was_run": "as §1"}, "PAK2": {"target": "T26, PAK2 (Homo sapiens, UniProt Q13177)", "T26 construct": "purchased DiscoveRx Corporation (KinomeScan panel)", "how_it_was_run": "as §1"}, "AURKA": {"target": "T27, AURKA (Homo sapiens, UniProt O14965)", "T27 construct": "purchased DiscoveRx Corporation (KinomeScan)", "how_it_was_run": "as §1"}, "PRKR": {"target": "T28, PRKR (Homo sapiens, UniProt P19525)", "T28 construct": "purchased DiscoveRx Corporation (KinomeScan)", "how_it_was_run": "as §1"}, "[1]": {"target": "T29, RPS6KA5(kin.Dom.2-C-termimal) (Homo sapiens, UniProt O75582)", "T29 construct": "kin.Dom.2; purchased DiscoveRx Corporation", "T29 sequence (O75582 426-687 limits assumed)": "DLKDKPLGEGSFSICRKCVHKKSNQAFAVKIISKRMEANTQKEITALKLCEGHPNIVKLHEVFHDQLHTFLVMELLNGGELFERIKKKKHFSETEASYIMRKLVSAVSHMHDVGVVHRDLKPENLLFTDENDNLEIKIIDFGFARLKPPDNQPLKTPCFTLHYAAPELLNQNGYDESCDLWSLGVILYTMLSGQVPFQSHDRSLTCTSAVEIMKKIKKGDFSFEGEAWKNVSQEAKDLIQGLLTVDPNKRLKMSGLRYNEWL", "how_it_was_run": "as §1"}, "BIKE": {"target": "T30, BIKE (Homo sapiens, UniProt Q9NSY1)", "T30 construct": "purchased DiscoveRx Corporation (KinomeScan)", "T30 sequence (Q9NSY1 whole entry)": "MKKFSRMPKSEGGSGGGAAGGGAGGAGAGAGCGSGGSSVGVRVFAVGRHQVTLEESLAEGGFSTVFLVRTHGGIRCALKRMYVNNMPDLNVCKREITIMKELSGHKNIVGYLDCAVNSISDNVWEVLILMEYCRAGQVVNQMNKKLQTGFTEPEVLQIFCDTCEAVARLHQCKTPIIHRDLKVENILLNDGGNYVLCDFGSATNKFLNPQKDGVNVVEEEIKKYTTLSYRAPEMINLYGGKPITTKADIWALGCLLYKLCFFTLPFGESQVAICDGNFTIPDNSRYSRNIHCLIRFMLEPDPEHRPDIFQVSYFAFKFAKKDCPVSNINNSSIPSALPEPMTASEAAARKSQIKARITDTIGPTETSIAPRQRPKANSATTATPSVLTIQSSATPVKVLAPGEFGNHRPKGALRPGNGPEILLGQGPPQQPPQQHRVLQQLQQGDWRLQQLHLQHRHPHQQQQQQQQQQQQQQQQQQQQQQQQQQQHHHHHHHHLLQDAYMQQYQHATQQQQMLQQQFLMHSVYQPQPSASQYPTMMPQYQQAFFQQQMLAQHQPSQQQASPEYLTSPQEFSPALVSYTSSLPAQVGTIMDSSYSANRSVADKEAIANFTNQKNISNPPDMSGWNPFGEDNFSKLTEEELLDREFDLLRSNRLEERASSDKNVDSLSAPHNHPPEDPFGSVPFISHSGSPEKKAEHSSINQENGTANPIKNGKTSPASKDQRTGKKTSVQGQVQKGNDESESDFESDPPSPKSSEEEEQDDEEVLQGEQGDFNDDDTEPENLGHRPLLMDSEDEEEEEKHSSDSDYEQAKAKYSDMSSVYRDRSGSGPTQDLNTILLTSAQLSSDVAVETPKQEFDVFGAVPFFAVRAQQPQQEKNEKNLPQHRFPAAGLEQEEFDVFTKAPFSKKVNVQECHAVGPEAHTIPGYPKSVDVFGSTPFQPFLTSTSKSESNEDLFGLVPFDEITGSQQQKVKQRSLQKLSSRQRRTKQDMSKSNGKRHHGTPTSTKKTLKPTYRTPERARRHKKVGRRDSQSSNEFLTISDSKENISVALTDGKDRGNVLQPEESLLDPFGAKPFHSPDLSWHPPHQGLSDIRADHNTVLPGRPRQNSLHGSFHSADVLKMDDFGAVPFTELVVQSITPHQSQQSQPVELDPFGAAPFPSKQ", "how_it_was_run": "as §1"}, "[2]": {"target": "T31, JAK1(JH1domain-catalytic) (Homo sapiens, UniProt P23458)", "T31 construct": "JAK1(JH1domain-catalytic); purchased DiscoveRx Corporation (KinomeScan)", "how_it_was_run": "as §1"}, "LYN": {"target": "T32, LYN (Homo sapiens, UniProt P07948)", "T32 construct": "purchased DiscoveRx Corporation (KinomeScan)", "T32 sequence (P07948 whole entry)": "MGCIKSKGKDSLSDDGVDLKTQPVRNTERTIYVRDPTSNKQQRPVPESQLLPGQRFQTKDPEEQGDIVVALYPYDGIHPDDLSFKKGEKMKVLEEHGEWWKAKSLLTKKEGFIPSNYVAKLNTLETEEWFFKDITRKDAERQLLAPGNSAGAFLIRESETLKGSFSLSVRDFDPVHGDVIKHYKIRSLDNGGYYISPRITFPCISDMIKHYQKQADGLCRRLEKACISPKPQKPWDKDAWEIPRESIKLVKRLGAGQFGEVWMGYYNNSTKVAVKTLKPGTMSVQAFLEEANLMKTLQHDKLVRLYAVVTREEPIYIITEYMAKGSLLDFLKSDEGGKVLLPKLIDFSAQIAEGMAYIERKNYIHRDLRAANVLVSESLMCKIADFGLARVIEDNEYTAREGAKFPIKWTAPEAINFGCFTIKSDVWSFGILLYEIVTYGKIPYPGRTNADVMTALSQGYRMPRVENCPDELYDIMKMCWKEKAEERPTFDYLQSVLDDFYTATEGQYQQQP", "how_it_was_run": "as §1"}, "BLK": {"target": "T33, BLK (Homo sapiens, UniProt P51451)", "T33 construct": "purchased DiscoveRx Corporation (KinomeScan)", "how_it_was_run": "as §1"}, "LKB1": {"target": "T34, LKB1 (Homo sapiens, UniProt Q15831)", "T34 construct": "purchased DiscoveRx Corporation (KinomeScan)", "T34 sequence (Q15831 whole entry)": "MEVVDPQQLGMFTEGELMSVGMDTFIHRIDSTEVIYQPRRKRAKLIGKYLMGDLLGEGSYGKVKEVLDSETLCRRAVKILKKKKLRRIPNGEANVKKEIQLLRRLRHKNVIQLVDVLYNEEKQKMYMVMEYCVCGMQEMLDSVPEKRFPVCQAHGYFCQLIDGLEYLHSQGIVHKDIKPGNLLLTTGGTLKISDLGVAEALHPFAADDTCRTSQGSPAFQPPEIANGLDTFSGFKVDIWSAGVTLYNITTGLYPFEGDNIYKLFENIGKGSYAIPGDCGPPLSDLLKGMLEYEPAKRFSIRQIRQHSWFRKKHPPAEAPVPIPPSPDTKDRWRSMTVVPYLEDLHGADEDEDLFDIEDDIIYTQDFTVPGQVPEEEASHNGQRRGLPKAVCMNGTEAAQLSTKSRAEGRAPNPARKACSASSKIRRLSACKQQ", "how_it_was_run": "as §1"}, "DDR2": {"target": "T35, DDR2 (Homo sapiens, UniProt Q16832)", "T35 construct": "purchased DiscoveRx Corporation (KinomeScan)", "T35 sequence (Q16832 22-855)": "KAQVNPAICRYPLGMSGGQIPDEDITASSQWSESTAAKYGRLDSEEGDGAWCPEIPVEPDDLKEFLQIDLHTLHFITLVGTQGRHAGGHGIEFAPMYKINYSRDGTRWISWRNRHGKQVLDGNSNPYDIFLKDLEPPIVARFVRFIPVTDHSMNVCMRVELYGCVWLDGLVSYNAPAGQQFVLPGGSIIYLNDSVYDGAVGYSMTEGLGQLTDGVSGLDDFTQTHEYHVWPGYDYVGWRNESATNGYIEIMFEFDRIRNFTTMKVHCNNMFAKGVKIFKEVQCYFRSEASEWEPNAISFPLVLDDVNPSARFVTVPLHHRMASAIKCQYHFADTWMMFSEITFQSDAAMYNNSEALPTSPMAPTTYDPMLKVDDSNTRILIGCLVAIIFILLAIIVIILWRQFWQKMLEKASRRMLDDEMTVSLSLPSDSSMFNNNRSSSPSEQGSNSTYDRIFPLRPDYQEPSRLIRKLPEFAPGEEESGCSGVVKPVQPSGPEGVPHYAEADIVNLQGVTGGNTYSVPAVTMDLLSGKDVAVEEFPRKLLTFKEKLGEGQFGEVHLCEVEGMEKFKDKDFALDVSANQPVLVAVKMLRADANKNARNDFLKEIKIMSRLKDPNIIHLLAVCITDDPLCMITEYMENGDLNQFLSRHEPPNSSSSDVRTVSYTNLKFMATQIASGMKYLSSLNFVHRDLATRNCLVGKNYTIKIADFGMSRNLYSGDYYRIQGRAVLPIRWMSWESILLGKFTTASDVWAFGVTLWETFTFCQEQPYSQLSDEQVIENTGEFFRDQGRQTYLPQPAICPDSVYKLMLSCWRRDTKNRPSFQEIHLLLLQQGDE", "how_it_was_run": "as §1"}},
  "data": [
    {"molecule": "CCOP(=O)(CN1CCC(COc2cc3nccc(Oc4ccc(NC(=O)C5(C(=O)Nc6ccc(F)cc6)CC5)cc4F)c3cc2OC)CC1)OCC", "note": "[Example 10, N1-[4-[[7-[[1-(diethoxyphosphorylmethyl)-4-piperidinyl]methoxyl]-6-methoxyl-4-quinolyl]oxyl]-3-fluorophenyl]-N1′-(4-fluorophenyl)cyclopropane-1,1-dicarboxamide]", "values": [
      {"measurement": "% Ctrl@1000 nM", "setting": "CSNK1G2", "result": 100, "unit": "% Ctrl"},
      {"measurement": "% Ctrl@1000 nM", "setting": "PAKC-beta", "result": 100, "unit": "% Ctrl"},
      {"measurement": "% Ctrl@1000 nM", "setting": "PIK3CB", "result": 100, "unit": "% Ctrl"},
      {"measurement": "% Ctrl@1000 nM", "setting": "MLK3", "result": 63, "unit": "% Ctrl"},
      {"measurement": "% Ctrl@1000 nM", "setting": "HIPK2", "result": 100, "unit": "% Ctrl"},
      {"measurement": "% Ctrl@1000 nM", "setting": "CAMK1G", "result": 88, "unit": "% Ctrl"},
      {"measurement": "% Ctrl@1000 nM", "setting": "PIK3CA(18DDL)", "result": 100, "unit": "% Ctrl"},
      {"measurement": "% Ctrl@1000 nM", "setting": "YES", "result": 20, "unit": "% Ctrl"},
      {"measurement": "% Ctrl@1000 nM", "setting": "S6K1", "result": 89, "unit": "% Ctrl"},
      {"measurement": "% Ctrl@1000 nM", "setting": "AKT2", "result": 100, "unit": "% Ctrl"},
      {"measurement": "% Ctrl@1000 nM", "setting": "TLK2", "result": 100, "unit": "% Ctrl"},
      {"measurement": "% Ctrl@1000 nM", "setting": "STK35", "result": 82, "unit": "% Ctrl"},
      {"measurement": "% Ctrl@1000 nM", "setting": "PFTAIRE2", "result": 87, "unit": "% Ctrl"},
      {"measurement": "% Ctrl@1000 nM", "setting": "MKNK1", "result": 45, "unit": "% Ctrl"},
      {"measurement": "% Ctrl@1000 nM", "setting": "EPHA4", "result": 4, "unit": "% Ctrl"},
      {"measurement": "% Ctrl@1000 nM", "setting": "KIT(L576P)", "result": 0, "unit": "% Ctrl"},
      {"measurement": "% Ctrl@1000 nM", "setting": "MAP4K2", "result": 100, "unit": "% Ctrl"},
      {"measurement": "% Ctrl@1000 nM", "setting": "PIP5K2B", "result": 100, "unit": "% Ctrl"},
      {"measurement": "% Ctrl@1000 nM", "setting": "PDGFRB", "result": 0, "unit": "% Ctrl"},
      {"measurement": "% Ctrl@1000 nM", "setting": "EGFR(E746-A750del)", "result": 92, "unit": "% Ctrl"},
      {"measurement": "% Ctrl@1000 nM", "setting": "CSNK2A1", "result": 100, "unit": "% Ctrl"},
      {"measurement": "% Ctrl@1000 nM", "setting": "PLK2", "result": 83, "unit": "% Ctrl"},
      {"measurement": "% Ctrl@1000 nM", "setting": "TESK1", "result": 39, "unit": "% Ctrl"},
      {"measurement": "% Ctrl@1000 nM", "setting": "MEK2", "result": 33, "unit": "% Ctrl"},
      {"measurement": "% Ctrl@1000 nM", "setting": "ERBB3", "result": 98, "unit": "% Ctrl"},
      {"measurement": "% Ctrl@1000 nM", "setting": "PAK2", "result": 54, "unit": "% Ctrl"},
      {"measurement": "% Ctrl@1000 nM", "setting": "AURKA", "result": 100, "unit": "% Ctrl"},
      {"measurement": "% Ctrl@1000 nM", "setting": "PRKR", "result": 100, "unit": "% Ctrl"},
      {"measurement": "% Ctrl@1000 nM", "setting": "[1]", "result": 83, "unit": "% Ctrl"},
      {"measurement": "% Ctrl@1000 nM", "setting": "BIKE", "result": 100, "unit": "% Ctrl"},
      {"measurement": "% Ctrl@1000 nM", "setting": "[2]", "result": 93, "unit": "% Ctrl"},
      {"measurement": "% Ctrl@1000 nM", "setting": "LYN", "result": 18, "unit": "% Ctrl"},
      {"measurement": "% Ctrl@1000 nM", "setting": "BLK", "result": 0.5, "unit": "% Ctrl"},
      {"measurement": "% Ctrl@1000 nM", "setting": "LKB1", "result": 100, "unit": "% Ctrl"},
      {"measurement": "% Ctrl@1000 nM", "setting": "DDR2", "result": 7.8, "unit": "% Ctrl"}
    ]}
  ]
}
